For experiment [1], the target named is T1, Lens culinaris lectin (LCA) (Lens culinaris, UniProt P02870).
T1 sequence (P02870 31-211 limits assumed): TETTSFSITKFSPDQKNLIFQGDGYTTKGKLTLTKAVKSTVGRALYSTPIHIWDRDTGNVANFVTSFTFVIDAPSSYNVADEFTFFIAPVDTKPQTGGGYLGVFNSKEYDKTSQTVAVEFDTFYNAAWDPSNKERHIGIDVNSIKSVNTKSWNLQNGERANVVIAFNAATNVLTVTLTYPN
T1 sequence (P02870 218-269 limits assumed): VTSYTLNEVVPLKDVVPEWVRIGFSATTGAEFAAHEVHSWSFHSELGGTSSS
Briefly: Dissociation constant (Kd) with labeled LCA lectin. In kind it is binding. To be noted: between sugar chain compound to be added and labeled lectin LCA; target compound AFP; read-out: Dissociation constant (Kd) x. The source says: In the present invention, the dissociation constant is defined as follows.
The binding between a sugar chain compound (A) and a lectin (B) occurs through a reversible reaction, and the following formula is established in an equilibrium state (wherein, [A] represents the concentration of the sugar chain compound (mol/L); [B] represents the concentration of the lectin (mol/L); and [A−B] represents the concentration of conjugates formed between the sugar chain compound and the lectin (mol/L)). [A−B]⇄[A]+[B]
In this case, the dissociation constant, Kd, between the sugar chain compound (A) and the lectin (B) is represented by the following equation: Kd=[A]×[B]/[A−B]

In experiment [2] the target is T1, Lens culinaris lectin (LCA). Briefly: SPFS sandwich immunoassay of AFP with labeled LCA, added competing sugar chain compound, S/N ratio. To be noted: AFP 3.0 ng/mL in commercially available serum, sugar chain compound 0.1% by weight in PBS for 10 minutes, none: S/N 2.
Experiment [3] concerns the target T2, Wisteria floribunda lectin (WFA) (Wisteria floribunda, UniProt A0A218PFP3).
T2 sequence (A0A218PFP3 31-273): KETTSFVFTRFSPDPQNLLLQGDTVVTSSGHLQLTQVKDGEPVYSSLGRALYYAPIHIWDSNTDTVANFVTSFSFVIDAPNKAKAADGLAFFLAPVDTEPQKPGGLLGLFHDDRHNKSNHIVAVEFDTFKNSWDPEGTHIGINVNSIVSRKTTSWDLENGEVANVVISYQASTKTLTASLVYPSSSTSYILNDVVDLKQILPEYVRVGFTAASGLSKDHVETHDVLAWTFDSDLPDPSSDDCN
Briefly: SPFS sandwich immunoassay of PSA with labeled WFA, added competing sugar chain compound, S/N ratio. To be noted: PSA in commercially available serum, sugar chain compound 0.1% by weight in PBS for 10 minutes, none: S/N 2. The method, then:
Antigen Addition Step: To one of the thus prepared sensor chip, 0.5 mL of a solution having a PSA concentration of 1.0 ng/mL, which was prepared by diluting the LNCaP culture supernatant with a commercially available serum (manufactured by Kohjin Bio Co., Ltd.), was added and circulated for 25 minutes in place of PBS. To the other sensor chip, a commercially available serum (manufactured by Kohjin Bio Co., Ltd.) containing no LNCaP culture supernatant was added and circulated for 25 minutes.
Washing Step: Each sensor chip was washed by circulating TBS containing 0.05% by weight of Tween 20 as a transfer liquid. Here, using a laser light source, the metal thin films of the sensor chip were irradiated with laser light having a wavelength of 635 nm, whose photon amount was adjusted by an optical filter (manufactured by Sigmakoki Co., Ltd.), through a prism (“S-LAL 10” manufactured by Ohara Inc. (refractive index [n]=1.72)), and the blank fluorescence was detected using a CCD image sensor (manufactured by Texas Instruments Inc.) equipped with a cut filter for cutting light having wavelengths of non-fluorescent components and an objective lens (×20). […]
Further, also for each of the following cases, the same experiment as described above was carried out and the S/N ratio was determined: […]

This passage reports Kd and S/N results from patent US9874558B2, “Immunoassay method less affected by impurities” (Konica Minolta, Inc., priority 2012, dated 2018).

Consider `CC(C)CCCC(C)C1CCC2C3CC=C4CC(OC(=O)NCCOC5OC(CO)[C@H](O)C(O)[C@@H]5O)CC[C@]4(C)C3CC[C@]12C` (stereo partly drawn) [Man-2-Chol], for which, in experiment [1], the Kd was determined as 220 µM. The S/N in experiment [2] is 3.

`CC(C)CCCC(C)C1CCC2C3CC=C4CC(OC(=O)NCCOC5OC(C)[C@@H](O)C(O)[C@H]5O)CC[C@]4(C)C3CC[C@]12C` (stereo partly drawn) [Fuc-2-Chol]: in experiment [3], the S/N is given as 3.
